For test [1], the system named is Tissue. In words: Bronchodilatory activity in histamine-precontracted Cavia porcellus (guinea pig) trachea at 30 ug/ml. It counts as functional.
The subject of test [2] is Tissue. As to the kind of experiment: Bronchodilatory activity in acetylcholine-precontracted Cavia porcellus (guinea pig) trachea at 30 ug/ml. The class given is functional.

Turning to `Cc1nc2ccccc2c(=O)n1-c1ccccc1`, the Activity in the test on Tissue [1] was found to be 100%.

`O=c1c2ccccc2nc2n1CCC2` [DEOXYVASICINONE] gave an Activity in the test with Tissue [1] of 20%.

The compound `CCCc1nc2ccccc2c(=O)n1-c1ccccc1` gave an Activity in the test with Tissue [1] of 50%.

In the case of `O=C1CC(c2ccccc2)N=C2CCCCCN12` (centres undefined), the results for the Activity in the test on Tissue [2] and with Tissue [1] were 30% and 50%, respectively.

`O=c1c2ccccc2nc2n1CCCCC2`: the Activity in the test on Tissue [2] and with Tissue [1] was 100% in each case.

Regarding `Cn1c(=O)c2c(ncn2CCO)n(C)c1=O` [ETOFYLLINE], the Activity in the test with Tissue [2] and in the test on Tissue [1] was 40% each time.

On to `CCCc1nc2ccccc2c(=O)n1-c1ccc(F)cc1`, for which the Activity in the test on Tissue [1] is 10%.

On to `Cc1nc2ccccc2c(=O)n1-c1ccc(F)cc1`, for which the Activity in the test with Tissue [1] was found to be 80%.

The compound `O=c1c2ccccc2nc2n1CCCC2` yielded an Activity in the test on Tissue [1] of 40%.

On to `CCc1nc2ccccc2c(=O)n1-c1ccccc1`, for which the Activity in the test on Tissue [1] is 100%.

As for `O=c1c2cc3c(cc2nc2n1CCCCC2)OCO3`, the Activity in the test on Tissue [2] and in the test on Tissue [1] was 100% in each case.

In the test on Tissue [1], `O=C1CC(c2ccccc2)N=C2CCCCN12` (centres undefined) had an Activity of 20%.

The compound `CCc1nc2ccccc2c(=O)n1-c1ccc(F)cc1` gave an Activity in the test with Tissue [1] of 20%.

With `O=c1c2cc3c(cc2nc2n1CCCC2)OCO3`, the Activity is 40% in the test on Tissue [2] and 50% in the test with Tissue [1].
